Key:
Assay type in all cases: in vivo, human
[1] = tested on: clinically stable subjects with schizophrenia; assay: MATRICS Consensus Cognitive Battery (MCCB), Phase 2a Clinical Study A, ITT; settings: 25 mg QD, Change to Week 12
From the text: A Phase 2a proof-of-concept (POC) study in clinically stable subjects with schizophrenia who were clinically stable and received stable doses of atypical antipsychotic therapy. The study was a Phase 2, multi-center, randomized, double-blind, placebo-controlled, parallel group study designed to evaluate the safety and efficacy of doses of (4s)-4-(5-phenyl-1,3,4-thiadiazol-2-yloxy)-1-azatricyclo[3.3.1.1^3,7]decane (Compound A) in clinically stable male and female subjects (ages 20 to 55, inclusive) with a Diagnostic and Statistical Manual of Mental Disorders—Fourth Edition, Text Revision (DSM-IV-TR) diagnosis of schizophrenia. […] The criteria for clinical stability was determined by a combination of retrospective data (over the 4 months prior to the start of Screening, which will be supported by clinical records, patient, identified responsible contact person, and physician interviews), and prospective data assessed during the Prospective Stabilization Period of 28 to 42 days duration. […]
The primary endpoint was the MCCB composite score, and the primary endpoint analysis was the change on the MCCB composite score from baseline to endpoint versus placebo. Other secondary measures included the MCCB domains, the NSA-16, the CANTAB cognition battery (measured at different time points from the MCCB), and the UPSA-2. […]

[2] = tested on: subjects with schizophrenia who were not current smokers; assay: MCCB composite score in non-smokers by COMT SNP, Clinical Study A; settings: for MCCB composite score, change score: subjects who were not current smokers; for MCCB Change from Baseline to Final Mean(SD) / MCCB Between-group Difference (Pooled SD) / MCCB Effect Size (Raw mean): non-smokers; for treatment effect on MCCB: nonsmokers
Experimental: Analysis of the data by cigarette smoking status (current smoker or current nonsmoker) indicated a significant […] interaction (p=0.015).
A blood sample for genotyping was collected from each subject who consented. Genomic DNA was isolated from whole blood using the FlexiGene DNA AGF3000 kit (Qiagen, Valencia, Calif.), on an AutogenFlex 3000 (AutoGen, Holliston, Mass.). Genotypes were determined using the Pyrosequencing detection method (USA—Qiagen, Inc., Valencia, Calif.). Individuals performing the genotyping were blinded to clinical trial data. The significance of the minor allele against the major allele is shown in column marked “Treatment genotype p-value” (Tables 6 and 7).
A similar dose-response trend was observed across the four COMT SNPs in the population of nonsmokers as well (data not shown).

[3] = tested on: clinically stable subjects with schizophrenia; assay: Disposition of subjects and tolerability, Clinical Study A
From the text: A Phase 2a proof-of-concept (POC) study in clinically stable subjects with schizophrenia who were clinically stable and received stable doses of atypical antipsychotic therapy. The study was a Phase 2, multi-center, randomized, double-blind, placebo-controlled, parallel group study designed to evaluate the safety and efficacy of doses of (4s)-4-(5-phenyl-1,3,4-thiadiazol-2-yloxy)-1-azatricyclo[3.3.1.1^3,7]decane (Compound A) in clinically stable male and female subjects (ages 20 to 55, inclusive) with a Diagnostic and Statistical Manual of Mental Disorders—Fourth Edition, Text Revision (DSM-IV-TR) diagnosis of schizophrenia. Psychiatric diagnoses were confirmed using the Mini-International Neuropsychiatric Interview (MINI) version 6.0.0. The criteria for clinical stability was determined by a combination of retrospective data (over the 4 months prior to the start of Screening, which will be supported by clinical records, patient, identified responsible contact person, and physician interviews), and prospective data assessed during the Prospective Stabilization Period of 28 to 42 days duration.
The study consisted of a screening period of at least 28 and up to 42 days, a 84-day outpatient treatment period, a 14-day post-treatment period, and a post-treatment follow-up period. The screening period consisted of three visits: Screening Visit 1, Screening Visit 2, and Day −1. Upon completion of Day −1 procedures, eligible subjects were randomized through an Interactive Voice Response/Interactive Web-Based (IVR/IWB) system. Subjects were randomized in an equal ratio to one of three treatment groups (placebo, 10 mg Compound A, or 25 mg Compound A).
Subjects completed 2 visits during the screening period. Study site personnel contacted each subject by telephone on Day 21, 35, and 70 of the 84-day treatment period to discuss study drug compliance, antipsychotic medication compliance, concomitant medication use, substance use, and any adverse events.
A total of 207 subjects were randomized.

[4] = tested on: clinically stable subjects with schizophrenia; assay: CANTAB cognition battery, Clinical Study A; settings: 10 mg and 25 mg dose groups
From the text: The primary endpoint was the MCCB composite score, and the primary endpoint analysis was the change on the MCCB composite score from baseline to endpoint versus placebo. Other secondary measures included the MCCB domains, the NSA-16, the CANTAB cognition battery (measured at different time points from the MCCB), and the UPSA-2. The Positive and Negative Syndrome Scale (PANSS) was included to document stability in schizophrenia symptomatology.
The Cambridge Neuropsychological Test Automated Battery (CANTAB) is a computer-based cognitive assessment system consisting of a battery of neuropsychological tests, administered to subjects using a touch screen computer. […] The CANTAB computerized system will be employed to explore the effects of Compound A on cognition. The tests assess the following cognitive domains: executive function, spatial memory, attention and episodic memory. The CANTAB battery took approximately 40 minutes to administer and was given on Days 14, 28, 56, 84 and 98.

[5] = RS4633 C/C (major allele), 25 mg vs placebo
[6] = RS4633 T/T or C/T (minor allele), 10 mg vs placebo
[7] = RS4633 T/T or C/T (minor allele), 25 mg vs placebo
[8] = RS4680 A/A or G/A (minor allele), 10 mg vs placebo
[9] = RS4680 A/A or G/A (minor allele), 25 mg vs placebo
[10] = RS4680 G/G (major allele), 25 mg vs placebo
[11] = RS4818 C/C (major allele), 25 mg vs placebo
[12] = RS4818 G/C or G/G (minor allele), 10 mg vs placebo
[13] = RS4818 G/C or G/G (minor allele), 25 mg vs placebo
[14] = RS6269 A/A (major allele), 25 mg vs placebo
[15] = RS6269 G/G or A/G (minor allele), 10 mg vs placebo
[16] = RS6269 G/G or A/G (minor allele), 25 mg vs placebo

Structure (SMILES): c1ccc(-c2nnc(O[C@@H]3C4CC5C[C@H]3C[N@](C5)C4)s2)cc1 [Compound A, (4s)-4-(5-phenyl-1,3,4-thiadiazol-2-yloxy)-1-azatricyclo[3.3.1.1^3,7]decane]
- MCCB Verbal Learning, Observed Mean (SD) change from baseline [1]: 2.24 (8.03) T-score
- MCCB composite score, change score ([2]; 10 mg, p=0.021): +2.1
- MCCB composite score, change score ([2]; 25 mg, p=0.001): +4.5
- MCCB Change from Baseline to Final Mean(SD) ([2]; RS4633 C/C (major allele), 25 mg): 7.4(6.1)
- MCCB Between-group Difference (Pooled SD) [2, 5]: 8.4(5.1)
- MCCB Effect Size (Raw mean) [2, 5]: 1.65
- MCCB Change from Baseline to Final Mean(SD) ([2]; RS4633 T/T or C/T (minor allele), 10 mg): 2.4(7.3)
- MCCB Between-group Difference (Pooled SD) [2, 6]: 2.7(6.1)
- MCCB Effect Size (Raw mean) [2, 6]: 0.44
- MCCB Change from Baseline to Final Mean(SD) ([2]; RS4633 T/T or C/T (minor allele), 25 mg): 2.4(5.4)
- MCCB Between-group Difference (Pooled SD) [2, 7]: 2.7(4.9)
- MCCB Effect Size (Raw mean) [2, 7]: 0.55
- MCCB Change from Baseline to Final Mean(SD) ([2]; RS4680 A/A or G/A (minor allele), 10 mg): 2.2(7.5)
- MCCB Between-group Difference (Pooled SD) [2, 8]: 2.4(6.4)
- MCCB Effect Size (Raw mean) [2, 8]: 0.38
- MCCB Change from Baseline to Final Mean(SD) ([2]; RS4680 A/A or G/A (minor allele), 25 mg): 2.4(5.4)
- MCCB Between-group Difference (Pooled SD) [2, 9]: 2.6(4.7)
- MCCB Effect Size (Raw mean) [2, 9]: 0.55
- MCCB Change from Baseline to Final Mean(SD) ([2]; RS4680 G/G (major allele), 25 mg): 7.4(6.1)
- MCCB Between-group Difference (Pooled SD) [2, 10]: 8.4(5.1)
- MCCB Effect Size (Raw mean) [2, 10]: 1.65
- MCCB Change from Baseline to Final Mean(SD) ([2]; RS4818 C/C (major allele), 25 mg): 1.3(6.7)
- MCCB Between-group Difference (Pooled SD) [2, 11]: 1.8(5.3)
- MCCB Effect Size (Raw mean) [2, 11]: 0.34
- MCCB Change from Baseline to Final Mean(SD) ([2]; RS4818 G/C or G/G (minor allele), 10 mg): 1.2(3.8)
- MCCB Between-group Difference (Pooled SD) [2, 12]: 1.8(3.9)
- MCCB Effect Size (Raw mean) [2, 12]: 0.46
- MCCB Change from Baseline to Final Mean(SD) ([2]; RS4818 G/C or G/G (minor allele), 25 mg): 5.8(5.3)
- MCCB Between-group Difference (Pooled SD) [2, 13]: 6.4(4.8)
- MCCB Effect Size (Raw mean) [2, 13]: 1.33
- MCCB Change from Baseline to Final Mean(SD) ([2]; RS6269 A/A (major allele), 25 mg): 1.9(6.3)
- MCCB Between-group Difference (Pooled SD) [2, 14]: 2.2(4.9)
- MCCB Effect Size (Raw mean) [2, 14]: 0.45
- MCCB Change from Baseline to Final Mean(SD) ([2]; RS6269 G/G or A/G (minor allele), 10 mg): 1.0(3.5)
- MCCB Between-group Difference (Pooled SD) [2, 15]: 1.9(3.9)
- MCCB Effect Size (Raw mean) [2, 15]: 0.49
- MCCB Change from Baseline to Final Mean(SD) ([2]; RS6269 G/G or A/G (minor allele), 25 mg): 5.9(5.6)
- MCCB Between-group Difference (Pooled SD) [2, 16]: 6.8(5.2)
- MCCB Effect Size (Raw mean) [2, 16]: 1.31
- treatment effect on MCCB ([2]; minor allele of the four COMT SNPs): highly robust
- treatment effect on MCCB ([2]; subjects containing the major allele): meaningful effect
- Discontinuation: Adverse event ([3]; 10 mg QD): 4 (5.8) n (%)
- Discontinuation: Adverse event ([3]; 25 mg QD): 3 (4.5) n (%)
- Discontinuation: Adverse event ([3]; Compound A overall): 7 (5.1) n (%)
- tolerability ([3]; subjects with schizophrenia, doses up to 25 mg QD, including 10 mg QD and 25 mg QD): well tolerated
- results on the CANTAB battery relative to MCCB results [4]: consistent

Reference: US20130317056A1, “NEURONAL NICOTINIC AGONISTS AND METHODS OF CORRELATING COMT SNPS” (ABBVIE INC., priority 2012, published 2013)
